Biological target: BTK enzyme (hBTK, full-length recombinant) (Homo sapiens (Human), UniProt Q06187)
Test: Btk enzyme activity assay, LANCE TR-FRET
Assay type: biochemical
Conditions: 50 pM hBTK, 2 μM biotin-A5-peptide, 25 μM ATP; 60 minute compound & enzyme incubation; read-out: BTK binding IC50
Protocol: Also BTK enzymatic activity was determined with the LANCE (Lanthanide Chelate Excite) TR-FRET (Time-resolved fluorescence resonance energy transfer) assay. […] Following a 60 minute compound & enzyme incubation, each reaction was initiated by the addition of 2.5 μL 1× kinase buffer containing 8 μM biotinylated “A5” peptide (Biotin-EQEDEPEGDYFEWLE-NH2), and 100 μM ATP. The final reaction in each well of 10 μL consists of […], 2 μM biotin-A5-peptide, and 25 μM ATP. Phosphorylation reactions were allowed to proceed for 120 minutes. Reactions were immediately quenched by the addition of 20 uL of 1× quench buffer (15 mM EDTA, 25 mM Hepes 7.3, and 0.1% Triton X-100) containing detection reagents (0.626 nM of LANCE-Eu-W1024-anti-phosphoTyrosine antibody, PerkinElmer and 86.8 nM of Streptavidin-conjugated Dylight 650, Dyomics/ThermoFisher Scientific). After 60 minutes incubation with detection reagents, reaction plates were read on a PerkinElmer EnVision plate reader using standard TR-FRET protocol. Briefly, excitation of donor molecules (Eu-chelate:anti-phospho-antibody) with a laser light source at 337 nm produces energy that can be transferred to Dylight-650 acceptor molecules if this donor:acceptor pair is within close proximity. Fluorescence intensity at both 665 nm (acceptor) and 615 nm (donor) are measured and a TR-FRET ratio calculated for each well (acceptor intensity/donor intensity). […] (Log10) compound concentrations. Btk Enzyme Activity Assay Method BTK enzymatic activity was determined with the LANCE (Lanthanide Chelate Excite) TR-FRET (Time-resolved fluorescence resonance energy transfer) assay. […] Following a 60 minute compound & enzyme incubation, each reaction was initiated by the addition of 2.5 μL 1× kinase buffer containing 8 μM biotinylated “A5” peptide (Biotin-EQEDEPEGDYFEWLE-NH2), and 100 μM ATP. The final reaction in each well of 10 μL consists of 50 pM hBTK, 2 μM biotin-A5-peptide, and 25 μM ATP. Phosphorylation reactions were allowed to proceed for 120 minutes. Reactions were immediately quenched by the addition of 20 uL of 1× quench buffer (15 mM EDTA, 25 mM Hepes 7.3, and 0.1% Triton X-100) containing detection reagents (0.626 nM of LANCE-Eu-W1024-anti-phosphoTyrosine antibody, PerkinElmer and 86.8 nM of Streptavidin-conjugated Dylight 650, Dyomics/ThermoFisher Scientific). After 60 minutes incubation with detection reagents, reaction plates were read on a PerkinElmer EnVision plate reader using standard TR-FRET protocol. Briefly, excitation of donor molecules (Eu-chelate:anti-phospho-antibody) with a laser light source at 337 nm produces energy that can be transferred to Dylight-650 acceptor molecules if this donor:acceptor pair is within close proximity. Fluorescence intensity at both 665 nm (acceptor) and 615 nm (donor) are measured and a TR-FRET ratio calculated for each well (acceptor intensity/donor intensity). […] (Log10) compound concentrations.

BTK enzyme (hBTK, full-length recombinant), sequence (Q06187 whole entry): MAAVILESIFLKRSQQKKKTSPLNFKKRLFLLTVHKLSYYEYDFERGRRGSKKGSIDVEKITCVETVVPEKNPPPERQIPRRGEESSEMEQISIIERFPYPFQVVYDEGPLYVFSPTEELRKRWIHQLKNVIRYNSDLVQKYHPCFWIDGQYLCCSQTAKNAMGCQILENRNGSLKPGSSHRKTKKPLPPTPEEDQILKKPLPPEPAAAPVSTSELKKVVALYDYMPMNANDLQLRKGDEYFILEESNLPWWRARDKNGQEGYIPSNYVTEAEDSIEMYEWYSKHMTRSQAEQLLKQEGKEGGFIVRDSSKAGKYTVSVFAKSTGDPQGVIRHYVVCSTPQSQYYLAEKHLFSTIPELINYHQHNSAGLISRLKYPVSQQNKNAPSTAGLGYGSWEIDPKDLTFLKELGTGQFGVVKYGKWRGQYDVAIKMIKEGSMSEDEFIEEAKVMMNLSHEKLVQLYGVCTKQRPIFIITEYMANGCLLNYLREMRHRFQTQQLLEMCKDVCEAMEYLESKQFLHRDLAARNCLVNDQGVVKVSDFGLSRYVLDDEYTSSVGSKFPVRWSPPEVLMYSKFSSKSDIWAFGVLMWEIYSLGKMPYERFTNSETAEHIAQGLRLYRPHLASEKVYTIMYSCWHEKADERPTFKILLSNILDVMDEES

Compound: CC1(C(=O)N2CCC[C@@H](c3nn(-c4ccc(Oc5ccccc5)cc4)c4c(N)nccc34)C2)COC1 [Example 1, (R)-(3-(7-amino-1-(4-phenoxyphenyl)-1H-pyrazolo[3,4-c]pyridin-3-yl)piperidin-1-yl)(3-methyloxetan-3-yl)methanone]
- IC50: 1.7 nM

Compound: Nc1nccc2c([C@@H]3CCCN(C(=O)C4CC4(F)F)C3)nn(-c3ccc(Oc4ccccc4)cc3)c12 (stereo partly drawn) [Example 4, 3-{(3R)-1-[(2,2-difluorocyclopropyl)carbo-nyl]piperidin-3-yl}-1-(4-phenoxyphenyl)-1H-pyrazolo[3,4-c]pyridin-7-amine]
- IC50: 9.3 nM

Compound: CC1(C(=O)N2CCC[C@@H](c3nn(-c4ccc(Oc5ccc(F)cc5)cc4)c4c(N)nccc34)C2)COC1 [Example 26, (R)-(3-(7-amino-1-(4-(4-fluorophenoxy)phenyl)-1H-pyrazolo[3,4-c]pyridin-3-yl)piperidin-1-yl)(3-methyloxetan-3-yl)methanone]
- IC50: 56.9 nM

Compound: C[C@H]1CC[C@@H](c2nn(-c3ccc(Oc4cccc(F)c4)cc3)c3c(N)nccc23)CN1C(=O)C1(C)COC1 [Example 28, 1-[4-(3-fluorophenoxy)phenyl]-3-{(3R,6S)-6-methyl-1-[(3-methyloxetan-3-yl)carbonyl]piperidin-3-yl}-1H-pyrazolo[3,4-c]pyridin-7-amine]
- IC50: 3.8 nM

Compound: C[C@@H](O)C(=O)N1C[C@H](c2nn(-c3ccc(Oc4cccc(F)c4)cc3)c3c(N)nccc23)CC[C@@H]1C [Example 29, (2R)-1-[(2S,5R)-5-{7-amino-1-[4-(3-fluorophenoxy)phenyl]-1H-pyrazolo[3,4-c]pyridin-3-yl}-2-methylpiperidin-1-yl]-1-oxopropan-2-ol]
- IC50: 5.8 nM

Reference: patent publication US9637486B2, “Btk inhibitors” (MERCK SHARP & DOHME CORP., priority 2013, dated 2017)
